Measured values from patent publication EP4752149A1, “OXYGEN-CONTAINING FUSED TRICYCLIC DERIVATIVE, AND PREPARATION METHOD THEREFOR AND USE THEREOF” (Tuojie Biotech (Shanghai) Co., Ltd., priority 2023, dated 2025).

What was measured:
Format in all cases: cell-based
[1] = tested on: Human non-small cell lung cancer cells (A549); assay: Inhibitory activity against human non-small cell lung cancer cells (A549), CTG cell viability; conditions: 5 days with compound
Procedure: (§1) Human non-small cell lung cancer cells (A549) were cultured using an F12K culture medium containing 10% FBS in a cell incubator (37 °C, 5% CO2). On day one, the cells were plated in a 384-well plate at a cell concentration of 300 cells/well and cultured overnight in an incubator. On day two, the cells were treated with compounds. The highest compound concentration was 10 µM and was diluted 3-fold to obtain 9 concentrations, and the final concentration of DMSO was 0.2%. After the cells were cultured in the incubator for another 5 days, the cell viability was tested using a CTG Cell Viability Detection Reagent; the testing method was consistent with the method provided by the kit. Data were processed using XLFit, and IC50 was calculated. [formula] X: the logarithm of the compound concentration; Y: % inhibition. Table 10. The IC50 (nM) of a compound of the present disclosure against A549

[2] = tested on: Human breast cancer cells (MDA-MB-231); assay: Inhibitory activity against human breast cancer cells (MDA-MB-231), CTG cell viability; conditions: 7 days with compound
Procedure: (§2) Human breast cancer cells (MDA-MB-231) were cultured using a DMEM culture medium containing 10% FBS in a cell incubator (37 °C, 5% CO2). On day one, the cells were plated in a 384-well plate at a cell concentration of 600 cells/well and cultured overnight in an incubator. On day two, the cells were treated with compounds. The highest compound concentration was 10 µM and was diluted 3-fold to obtain 9 concentrations, and the final concentration of DMSO was 0.2%. After the cells were cultured in the incubator for another 7 days, the cell viability was tested using a CTG Cell Viability Detection Reagent; the testing method was consistent with the method provided by the kit. Data were processed using XLFit, and IC50 was calculated. [formula] X: the logarithm of the compound concentration; Y: % inhibition. Table 8. The IC50 (nM) of a compound of the present disclosure against MDA-MB-231

[3] = tested on: Human prostate cancer cells (22RV1); assay: Inhibitory activity against human prostate cancer cells (22RV1), CTG cell viability; conditions: 5 days with compound
Procedure: as §1, with “prostate” for “non-small cell lung”, “(22RV1)” for “(A549)”, “RPMI 1640” for “F12K”, “500” for “300”, “12.” for “10.”, “22RV1” for “A549”

MCF-7/Palbo-R = assay: Inhibitory activity against CDK4/6 inhibitor-resistant human breast cancer cells (MCF-7 palbociclib-resistant cell line), cell viability; conditions: 5 days with compound, CellTiter-Glo cell viability
Procedure: MCF-7/Palbo-R cell source: MCF7 cells (Nanjing Cobioer Biosciences Co., Ltd.) were treated with 1 µM palbociclib for a long time, and drug resistance was induced.
The palbociclib-resistant breast cancer cell line MCF-7/Palbo-R was cultured using a DMEM culture medium containing 10% FBS in a cell incubator (37 °C, 5% CO2). On day one, the cells were plated in a 384-well plate at a cell concentration of 800 cells/well and cultured overnight in an incubator. On day two, the cells were treated with compounds. The highest compound concentration was 10 µM and was diluted 3-fold to obtain 9 concentrations, and the final concentration of DMSO was 0.2%. After the cells were cultured in the incubator for another 5 days, the cell viability was tested using a CellTiter-Glo luminescent cell viability assay kit; the testing method was consistent with the method provided by the kit. Data were processed using XLfit, and IC50 was calculated.
The inhibition rates (IR) of the test compounds were calculated using the following formula: IR (%) = (1 - (RLU compound - RLU blank control) / (RLU vehicle control-RLU blank control)) × 100%. Table 16. The IC50 (nM) of a compound of the present disclosure against MCF-7/Palbo-R

[4] = tested on: Triple-negative breast cancer cells (HCC1806); assay: Inhibitory activity against triple-negative breast cancer cells (HCC1806), CTG cell viability; conditions: 7 days with compound
Procedure: Triple-negative breast cancer cells (HCC1806, Nanjing Cobioer Biosciences Co., Ltd.) were cultured using an RPMI 1640 culture medium containing 10% FBS in a cell incubator (37 °C, 5% CO2). On day one, the cells were plated in a 384-well plate at a cell concentration of 200 cells/well and cultured overnight in an incubator. On day two, the cells were treated with compounds. The highest compound concentration was 10 µM and was diluted 3-fold to obtain 9 concentrations, and the final concentration of DMSO was 0.2%. After the cells were cultured in the incubator for another 7 days, the cell viability was tested using a CTG Cell Viability Detection Reagent (MCE); the testing method was consistent with the method provided by the kit. Data were processed using XLfit, and IC50 was calculated. [formula] X: the logarithm of the compound concentration; Y: inhibition%. Table 4. The IC50 (nM) of compounds of the present disclosure against HCC1806

[5] = tested on: Human breast cancer cells (SUM-149PT); assay: Inhibitory activity against human breast cancer cells (SUM-149PT), CTG cell viability; conditions: 5 days with compound
Procedure: as §2, with “cells (SUM-149PT)” for “cells (MDA-MB-231)”, “of 800” for “of 600”, “another 5” for “another 7”, “Table 14.” for “Table 8.”, “against SUM-149PT” for “against MDA-MB-231”

Compound	IC50 [1] [nM]	IC50 [2] [nM]	IC50 [3] [nM]	IC50 (MCF-7/Palbo-R) [nM]	IC50 [4] [nM]	IC50 [5] [nM]	IC50 (MCF-7/Palbo-R; Homo sapiens, MCF7, 120 h) [nM]
COCc1cc(C(=O)Nc2cc([C@H]3CC[C@@H](OC(=O)NC(C)C)C3)[nH]n2)n(C)n1 [PF-07104091, reference compound]	1130	1250	2700	836	936	1340	
CC(C)n1c(C(C)(C)O)nc2c(F)cc(-c3nc(N[C@@H]4CCOC[C@H]4O)ncc3Cl)cc21 [PF-07220060]	1870	567		967	1590		
CC(=O)c1c(C)c2cnc(Nc3ccc(N4CCNCC4)cn3)nc2n(C2CCCC2)c1=O [Palbociclib]							> 2000
